# Activity calls are given as the source filed them. The rule behind the calls is not given here.
# Legend:
# Candida albicans [1] = test: Synergistic antifungal activity against fluconazole-resistant Candida albicans 901 assessed as inhibition of fungal growth in presence of fluconazole by checker board microdilution assay; format: functional
# Candida albicans [2] = test: Synergistic antifungal activity against fluconazole-resistant Candida albicans 904 assessed as inhibition of fungal growth in presence of fluconazole by checker board microdilution assay; format: functional
# Candida albicans [3] = test: Synergistic antifungal activity against fluconazole-resistant Candida albicans 632 assessed as inhibition of fungal growth in presence of fluconazole by checker board microdilution assay; format: functional
# Candida albicans [4] = test: Synergistic antifungal activity against fluconazole-resistant Candida albicans 311 assessed as inhibition of fungal growth in presence of fluconazole by checker board microdilution assay; format: functional
# Candida albicans [5] = test: Antifungal activity against fluconazole-resistant Candida albicans 904 assessed as inhibition of fungal growth by checker board microdilution assay; format: functional
# Candida albicans [6] = test: Antifungal activity against fluconazole-resistant Candida albicans 632 assessed as inhibition of fungal growth by checker board microdilution assay; format: functional
# Candida albicans [7] = test: Antifungal activity against fluconazole-resistant Candida albicans 103 assessed as inhibition of fungal growth by checker board microdilution assay; format: functional
# Candida albicans [8] = test: Antifungal activity against fluconazole-resistant Candida albicans 311 assessed as inhibition of fungal growth by checker board microdilution assay; format: functional
# Candida albicans [9] = test: Synergetic antifungal activity against fluconazole-resistant Candida albicans 632 assessed as fractional inhibitory concentration index in presence of fluconazole by checker board microdilution assay; format: functional
# Candida albicans [10] = test: Synergetic antifungal activity against fluconazole-resistant Candida albicans 100 assessed as fractional inhibitory concentration index in presence of fluconazole by checker board microdilution assay; format: functional
# Candida albicans [11] = test: Synergetic antifungal activity against fluconazole-resistant Candida albicans 103 assessed as fractional inhibitory concentration index in presence of fluconazole by checker board microdilution assay; format: functional
# Candida albicans [12] = test: Synergetic antifungal activity against fluconazole-resistant Candida albicans 311 assessed as fractional inhibitory concentration index in presence of fluconazole by checker board microdilution assay; format: functional
# MCF7 = test: Cytotoxicity against human MCF7 cell assessed as inhibition of cell growth after 24 hrs by MTT assay; format: functional, cell-based; conditions: MCF7, 24 h
# HepG2 = test: Cytotoxicity against human HepG2 cell assessed as inhibition of cell growth after 24 hrs by MTT assay; format: functional, cell-based; conditions: HepG2, 24 h
# [13] = Cytotoxicity against human BEAS-2B cell assessed as inhibition of cell growth after 24 hrs by MTT assay; format: toxicity, cell-based; conditions: BEAS-2B cells
# [14] = Cytotoxicity against mouse NIH3T3 cell assessed as inhibition of cell growth after 24 hrs by MTT assay; format: toxicity, cell-based; conditions: NIH3T3 cells
# [15] = Cytotoxicity against mouse BV-2 cell assessed as inhibition of cell growth after 24 hrs by MTT assay; format: toxicity, cell-based; conditions: BV-2 cells
# Candida albicans [16] = test: Antibiofilm activity against Candida albicans 904 assessed as inhibition of […] metabolism within the biofilm after 48 hrs by XTT reduction assay; format: functional
# Candida albicans [17] = test: Synergistic antibiofilm activity in Candida albicans 904 assessed as downregulation of TEC1 at 32 ug/ml incubated for 24 hrs in presence of fluconazole by RT-PCR analysis; format: functional, organism-based; conditions: dose 32.0 µg/ml
# Candida albicans [18] = test: Synergistic antibiofilm activity in Candida albicans 904 assessed as downregulation of ALS3 at 32 ug/ml incubated for 24 hrs in presence of fluconazole by RT-PCR analysis; format: functional, organism-based; conditions: dose 32.0 µg/ml
# Candida albicans [19] = test: Fungicidal activity against Candida albicans 904 assessed as colony forming at 4 times MIC incubated for 48 hrs by time-kill curve assay; format: functional
# Candida albicans [20] = test: Fungicidal activity against Candida albicans 904 assessed as colony forming at 4 times MIC in presence of fluconazole incubated for 48 hrs by time-kill curve assay; format: functional
# [21] = Metabolic stability in human liver microsomes assessed as half life in presence of NADPH cofactor under shaking condition for 10 mins measured after 5 to 60 mins by LC-MS/MS analysis; format: ADME, Microsome; conditions: time 15-70 min
# [22] = Metabolic stability in human liver microsomes assessed as microsomal intrinsic clearance in presence of NADPH cofactor under shaking condition for 10 mins measured after 5 to 60 mins by LC-MS/MS analysis; format: ADME, Microsome; conditions: time 15-70 min
# [23] = Metabolic stability in human liver microsomes assessed as intrinsic clearance in presence of NADPH cofactor under shaking condition for 10 mins measured after 5 to 60 mins by LC-MS/MS analysis; format: ADME, Microsome; conditions: time 15-70 min
# [24] = Stability in human plasma assessed as half life at 120 mins by LC-MS/MS analysis; format: ADME, cell-free
# CYP1A2 = target: T1, CYP1A2 (Homo sapiens, UniProt P05177); test: Inhibition of CYP1A2 in human liver microsome at 10 uM using phenacetin as substrate incubated for 10 mins in presence of NADPH cofactor by LC-MS/MS analysis; format: ADME; conditions: liver microsomes, probe phenacetin
# T1 sequence (P05177 whole entry): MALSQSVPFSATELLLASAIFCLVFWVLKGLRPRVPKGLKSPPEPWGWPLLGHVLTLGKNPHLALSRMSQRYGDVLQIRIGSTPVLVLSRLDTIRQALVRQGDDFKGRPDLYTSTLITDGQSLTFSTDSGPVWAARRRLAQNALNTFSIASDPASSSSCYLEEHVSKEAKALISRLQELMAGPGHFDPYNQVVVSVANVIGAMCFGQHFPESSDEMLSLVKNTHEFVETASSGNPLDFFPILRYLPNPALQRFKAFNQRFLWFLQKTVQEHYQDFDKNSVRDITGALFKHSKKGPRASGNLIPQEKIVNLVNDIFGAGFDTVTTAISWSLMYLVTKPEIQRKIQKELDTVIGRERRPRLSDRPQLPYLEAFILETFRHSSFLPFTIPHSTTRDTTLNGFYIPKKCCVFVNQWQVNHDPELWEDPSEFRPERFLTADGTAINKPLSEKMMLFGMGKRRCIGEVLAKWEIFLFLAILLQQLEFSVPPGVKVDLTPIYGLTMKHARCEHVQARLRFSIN
# CYP2D6 = CYP2D6 (Homo sapiens, UniProt P10635); test: Inhibition of CYPD6 in human liver microsome at 10 uM using dextromethorphan as substrate incubated for 10 mins in presence of NADPH cofactor by LC-MS/MS analysis; format: ADME; conditions: liver microsomes, probe dextromethorphan
# Chain of CYP2D6 (P10635 whole entry): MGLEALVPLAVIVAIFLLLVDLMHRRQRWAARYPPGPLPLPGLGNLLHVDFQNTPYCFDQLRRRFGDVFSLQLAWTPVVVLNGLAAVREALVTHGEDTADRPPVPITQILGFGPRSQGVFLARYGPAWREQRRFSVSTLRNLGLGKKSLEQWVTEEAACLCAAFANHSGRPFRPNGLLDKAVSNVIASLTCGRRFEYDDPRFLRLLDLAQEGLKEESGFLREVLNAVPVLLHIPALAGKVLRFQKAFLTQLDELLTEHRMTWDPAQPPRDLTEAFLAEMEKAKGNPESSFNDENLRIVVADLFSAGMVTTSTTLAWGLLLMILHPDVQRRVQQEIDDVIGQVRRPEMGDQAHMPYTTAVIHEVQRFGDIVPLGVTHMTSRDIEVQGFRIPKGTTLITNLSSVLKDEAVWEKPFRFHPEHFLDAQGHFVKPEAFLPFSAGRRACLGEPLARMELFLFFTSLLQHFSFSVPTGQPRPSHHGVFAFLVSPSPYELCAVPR
# CYP3A4 = CYP3A4 (Homo sapiens, UniProt P08684); test: Inhibition of CYP3A4 in human liver microsome at 10 uM using midazolam as substrate incubated for 10 mins in presence of NADPH cofactor by LC-MS/MS analysis; format: ADME; conditions: liver microsomes, probe midazolam
# Chain of CYP3A4 (P08684 whole entry): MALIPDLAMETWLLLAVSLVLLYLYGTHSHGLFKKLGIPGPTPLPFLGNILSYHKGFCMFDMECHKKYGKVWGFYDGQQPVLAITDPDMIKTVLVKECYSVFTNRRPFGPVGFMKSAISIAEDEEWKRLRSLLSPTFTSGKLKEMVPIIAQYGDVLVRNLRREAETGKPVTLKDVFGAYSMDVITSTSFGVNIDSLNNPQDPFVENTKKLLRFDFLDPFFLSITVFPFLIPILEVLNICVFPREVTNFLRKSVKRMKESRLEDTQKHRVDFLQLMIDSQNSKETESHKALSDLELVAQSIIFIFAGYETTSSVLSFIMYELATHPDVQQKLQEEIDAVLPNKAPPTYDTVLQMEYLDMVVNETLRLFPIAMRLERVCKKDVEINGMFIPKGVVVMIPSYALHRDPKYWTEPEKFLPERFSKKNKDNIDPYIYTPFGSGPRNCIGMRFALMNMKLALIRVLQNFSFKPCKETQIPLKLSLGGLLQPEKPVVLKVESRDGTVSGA
# Candida albicans [25] = test: Induction of morphological changes in Candida albicans 904 assessed as hyphal formation by measuring EFG1 level incubated for 4 hrs in presence of fluconazole; format: functional, organism-based
# Candida albicans [26] = test: Potentiation of fluconazole-induced antifungal activity against fluconazole-resistant Candida albicans 904 assessed as fluconazole MIC by checker board microdilution assay; format: functional
# Candida albicans [27] = test: Potentiation of fluconazole-induced antifungal activity against fluconazole-resistant Candida albicans 632 assessed as fluconazole MIC by checker board microdilution assay; format: functional
# Candida albicans [28] = test: Potentiation of fluconazole-induced antifungal activity against fluconazole-resistant Candida albicans 100 assessed as fluconazole MIC by checker board microdilution assay; format: functional
# Candida albicans [29] = test: Potentiation of fluconazole-induced antifungal activity against fluconazole-resistant Candida albicans 103 assessed as fluconazole MIC by checker board microdilution assay; format: functional
# Candida albicans [30] = test: Potentiation of fluconazole-induced antifungal activity against fluconazole-resistant Candida albicans 311 assessed as fluconazole MIC by checker board microdilution assay; format: functional
Structure (SMILES),MIC80 (Candida albicans [1]) [µg/mL],MIC80 (Candida albicans [2]) [µg/mL],MIC80 (Candida albicans [3]) [µg/mL],MIC80 (Candida albicans [4]) [µg/mL],MIC80 (Candida albicans [5]) [µg/mL],MIC80 (Candida albicans [6]) [µg/mL],MIC80 (Candida albicans [7]) [µg/mL],MIC80 (Candida albicans [8]) [µg/mL],fractional inhibitory concentration index (FICI) (Candida albicans [9]),fractional inhibitory concentration index (FICI) (Candida albicans [10]),fractional inhibitory concentration index (FICI) (Candida albicans [11]),fractional inhibitory concentration index (FICI) (Candida albicans [12]),IC50 (MCF7) [µM],IC50 (HepG2) [µM],IC50 at 24 h [13] [µM],IC50 at 24 h [14] [µM],IC50 at 24 h [15] [µM],MIC50 (Candida albicans [16]) [µg/mL],Activity (Candida albicans [17]),Activity (Candida albicans [18]),other results
CNC(=O)c1noc(-c2cc(-c3ccc(C)cc3)c(O)cc2O)c1-c1ccc(CN2CCOCC2)cc1,0.5,0.25,0.5,2,> 64,> 64,> 64,> 64,0.016,0.035,0.047,0.062,21.5,> 50,12.2,8.63,11.1,> 64,Active,Active,"MFC (Candida albicans [19]): > 64 µg/mL; MFC (Candida albicans [20]): 0.5 µg/mL; half-life [21]: 24.8 min; CLint [22]: 55.9 µL/min/mg; CLint [23]: 50.3 mL/min/kg; half-life [24]: > 288 min; inhibition at 10 min, 10 µM (CYP1A2): 9.9%; inhibition at 10 min, 10 µM (CYP2D6): 86.3%; inhibition at 10 min, 10 µM (CYP3A4): 43.2%; Activity (Candida albicans [25]): Active; MIC80 (Candida albicans [26]): 1 µg/mL; MIC80 (Candida albicans [27]): 0.5 µg/mL; MIC80 (Candida albicans [28]): 2 µg/mL; MIC80 (Candida albicans [29]): 2 µg/mL; MIC80 (Candida albicans [30]): 2 µg/mL"
CCNC(=O)c1noc(-c2cc(-c3ccc(C)cc3)c(O)cc2O)c1-c1ccc(CN2CCOCC2)cc1,0.125,0.25,0.125,0.25,> 64,> 64,> 64,> 64,0.033,0.033,0.035,0.035,34.1,17.4,> 50,21.3,10.3,> 64,Active,Active,"MFC (Candida albicans [19]): > 64 µg/mL; MFC (Candida albicans [20]): 0.25 µg/mL; half-life [21]: 32.1 min; CLint [22]: 43.2 µL/min/mg; CLint [23]: 38.9 mL/min/kg; half-life [24]: > 288 min; inhibition at 10 min, 10 µM (CYP1A2): 8%; inhibition at 10 min, 10 µM (CYP2D6): 36.9%; inhibition at 10 min, 10 µM (CYP3A4): 36.7%; Activity (Candida albicans [25]): Active; MIC80 (Candida albicans [26]): 2 µg/mL; MIC80 (Candida albicans [27]): 2 µg/mL; MIC80 (Candida albicans [28]): 2 µg/mL; MIC80 (Candida albicans [29]): 2 µg/mL; MIC80 (Candida albicans [30]): 2 µg/mL"
